Assay results published in patent US20230129485A1, “SYSTEM AND METHOD FOR DETERMINING MATERIAL PROPERTIES OF MOLECULAR SYSTEMS FROM AN AB-INITIO PARAMETERIZED FORCE-FIELD” (InterX, Inc., priority 2021, published 2023).
Read-outs that look alike come from different tables or passages of the source.

Experiments:
[1] = Free energy of hydration by Polarizable Continuum Model (PCM); conditions: absolute error vs Exp (hydration)
Description: (§1) Due to unavailability of free energy data for the original COSMO model, the free energies of solvation for the molecule dataset are calculated using MolPro ver. […] The comparisons to other implicit solvent models such as SMD, PCM and COSMO-RS are limited to the overlap of the molecules computed using QM-parameterized force field model. The free energies of hydration as predicted by these implicit solvent models (SMD, PCM) were received.

[2] = experimental, cited from earlier work; for Exp (hydration): Table 5
[3] = implicit solvent model, values received; cited from earlier work
[4] = Free energy of hydration predicted by General Amber Force Field (GAFF), from literature; conditions: Table 5; error of GAFF hydration free energy vs experiment
[5] = implicit solvent model, values received; cited from earlier work; remark: listed apart in the source
[6] = Table 5; free energy of hydration, AMOEBA prediction taken from literature; cited from earlier work
[7] = Free energy of hydration predicted with the QM-parameterized force field model (ARROW FF), classical MD and PIMD simulation in a water box; conditions: for Arrow error: Table 5, error of Arrow PIMD8 hydration free energy vs experiment; for Arrow PIMD8 Error: absolute error vs Exp (hydration)
Description: For example, the example QM-parameterized force-field molecular simulation process 400 can use Bennett Acceptance Ratio (BAR) to compute the free energy of hydration/solvation of the molecule in water or any other solvent. In some implementations, the analysis of the molecular dynamics simulations includes analysis, predication, and visualization of ensemble properties of atoms/molecules from atomic and molecular trajectories using the optimized parameters of the QM-parameterized force field model (i.e., the quantum mechanics rule-based reasoning technique) and the QM-parameterized force field model.
(§2) In some simulations of the QM-parameterized force field molecular simulation process, the molecules were placed in a water or cyclohexane box of size 32×32×32 Å3. Particle-Mesh Ewald (PME) algorithm was used to compute the electrostatic interactions. A 32×32×32 grid mesh and 5th power spline interpolation order can be used to compute the inverse PME sum. 9 Å cutoffs were used to compute the direct PME sum as well as the exchange and dispersion interactions. Bulk corrections were applied to account for distance cut-off of dispersion interactions. Solvation free energies were computed by decoupling the interactions between the solute and the solvent molecules. Electrostatic, exchange-repulsion and dispersion interactions were switched off simultaneously using a lambda-dependent scaling (a scaling factor power=2 was used) and a soft-coring algorithm (maximal soft-coring radius=1.5 Å, soft-coring radius scaling factor power=1). 15 lambda points unequally spaced (X=0, 0.05, 0.1, 0.2, 0.3, 0.4, 0.5, 0.6, 0.7, 0.75, 0.8, 0.85, 0.9, 0.95, 1.0) were used to decouple the solute-solvent intermolecular interactions.
(§3) In some simulations of the QM-parameterized force field molecular simulation process, energy minimization (10,000 steps) using the steepest descent algorithm was initially performed on all the simulation systems. This was followed by a 50 ps equilibration and 1 ns production runs in the isothermal-isobaric ensemble (NPT). […] Pressure was maintained at 1 atm using a MTTK barostat (relaxation time=5 ps). A Multiple Time Step (MTS) algorithm was used to integrate the equations of motion both for the classical and path-integral runs. […] The calculations were performed using the QM-parameterized force field model.
Using the QM-parameterized force field model, the QM-parameterized force field device can compute or predict the solvation free energies using both the Bennett acceptance ratio (BAR) and thermodynamic integration (TI) method with <dH/dλ> values interpolated by cubic splines. […] FIG. 7A illustrates a <dH/dλ> dependence for desolvation of Anthracene in water. FIG. 7B illustrates accumulated statistical errors for TI calculations of AG desolvation of Anthracene in water.

[8] = Free energy of hydration by COSMO-RS
Description: as §1

[9] = Free energy of hydration by Solvation Model Dielectric (SMD) implicit solvent model; conditions: absolute error vs Exp (hydration)
Description: as §1

[10] = Free energy of hydration predicted by polarizable AMOEBA force field, from literature; conditions: Table 5; error of AMOEBA hydration free energy vs experiment
[11] = Free energy of hydration by COSMO implicit solvent model (MolPro ver. 2012); conditions: absolute error vs Exp (hydration)
Description: as §1

[12] = Table 5; free energy of hydration, GAFF prediction taken from literature; cited from earlier work
[13] = Free energy of solvation in cyclohexane predicted with the QM-parameterized force field model (ARROW FF), MD and PIMD; conditions: Table 4
Description: Cyclohexane (CHEX) is nonpolar and equilibrates relatively quickly.
as §2, with “Particle-Mesh” for “In some simulations of the QM-parameterized force field molecular simulation process, the molecules were placed in a water or cyclohexane box of size 32×32×32 Å3. Particle-Mesh”
as §3
Using the QM-parameterized force field model, the QM-parameterized force field device can compute or predict the solvation free energies using both the Bennett acceptance ratio (BAR) and thermodynamic integration (TI) method with <dH/dλ> values interpolated by cubic splines.

[14] = CHEX/H2O partition coefficient (log D) predicted with the QM-parameterized force field model (ARROW FF)
Description: In some simulations, the example QM-parameterized force-field molecular simulation process includes using the functional form of the bonded interactions, with force constants and equilibrium values fitted to QM energies at the MP2/aug-cc-pVTZ level of theory. In some simulations, solvents of water and cyclohexane are selected. Cyclohexane (CHEX) is nonpolar and equilibrates relatively quickly. Reliable experimental data for both CHEX solvation free energies, as well as for the CHEX/H2O partition coefficients are used in these simulations.
In some example simulations, solutes containing neutral chemical functional groups, for example carboxylic acids, alkanes, alkenes, aromatics, aldehydes, ketones, alcohols, amides, esters, thiols, sulfides, disulfides and heterocycles, are used. The simulations were performed independently by four groups using their own respective computational resources and architectures, and then averaged. FIGS. 9A-9C show solvation and hydration free energies predictions of various solutes, using the QM-parameterized force field model, in some embodiments.
The straight line is a line of agreement between experimental and simulated/predicted values, and the gray bar is the range or chemical accuracy. […] The molecules here are a subset of those in a) because only those with experimental values for CHEX solvation can be included.

[15] = experimental, cited from earlier work
[16] = CHEX/H2O partition coefficient, experimental, cited from earlier work
[17] = Table 3, free energy of hydration
[18] = Table 3, absolute error of MD hydration free energy vs experiment
[19] = Table 3, absolute error of PIMD8 hydration free energy vs experiment

Row | Compound | PCM Error [1] [kcal/mol] | water Exp (hydration) [2, 17] [kcal/mol] | Exp (hydration) ([2]; free energy of hydration) [kcal/mol] | PCM free energy of hydration [3] [kcal/mol] | GAFF error [4] [kcal/mol] | SMD free energy of hydration [5] [kcal/mol] | AMOEBA [6] [kcal/mol] | water Arrow MD Error [7, 18] [kcal/mol] | water Arrow PIMD8 Error [7, 19] [kcal/mol] | Arrow error [7] [kcal/mol] | Arrow PIMD8 Error [7] [kcal/mol] | COSMO-RS error [8] [kcal/mol] | SMD Error [9] [kcal/mol] | AMOEBA error [10] [kcal/mol] | COSMO/Molpro Error [11] [kcal/mol] | GAFF [12] [kcal/mol] | further results
1 | CNC [dimethylamine] | 2.30 | -4.30 | -4.30 | -2.00 | 1.19 | -3.20 | -3.04 | 1.38 | 0.23 | 0.23 | 0.23 | 2.12 | 1.10 | 1.26 | 0.57 | -3.11 | –
2 | COC [DiMethylEther] | 0.11 | -1.91 | -1.91 | -1.80 | 1.06 | -0.60 | -2.22 | 0.87 | 0.37 | 0.37 | 0.37 | – | 1.31 | 0.31 | 1.99 | -0.85 | –
3 | CCC(=O)O [propionicacid] | 2.16 | -6.46 | – | -4.30 | – | -5.50 | – | 0.24 | 0.25 | – | 0.25 | 0.15 | 0.96 | – | 2.03 | – | CHEX Arrow MD Error ([13]; error of MD cyclohexane solvation free energy vs experiment): 0.06 kcal/mol; CHEX Arrow PIMD4 Error ([13]; error of PIMD4 cyclohexane solvation free energy vs experiment): 0.18 kcal/mol; water Exp (hydration) ([2]; Table 4, neutral amino-acid analogues): -6.46 kcal/mol; log D Arrow MD Error [14]: 0.22; log D Arrow PIMD Error [14]: 0.05; logD Arrow MD Error [14]: 0.22; logD Arrow PIMD Error [14]: 0.05; water Arrow MD Error ([7]; Table 4, error of MD hydration free energy vs experiment): 0.24 kcal/mol; water Arrow PIMD8 Error ([7]; Table 4, error of PIMD8 hydration free energy vs experiment): 0.25 kcal/mol; CHEX Exp (solvation) ([15]; Table 3, free energy of solvation in cyclohexane): -3.32 kcal/mol; CHEX Exp (solvation) ([15]; Table 4, solvation free energy in cyclohexane): -3.32 kcal/mol; Exp (log D) ([16]; Table 3): −2.30; logD Exp (logD) ([16]; Table 4): −2.30
4 | CCCCS [1-Butanethiol] | – | -0.99 | -0.99 | – | 0.69 | – | -0.12 | 1.15 | 0.50 | 0.50 | 0.50 | – | – | 0.87 | 3.06 | -1.68 | –
5 | CSC [DiMethylSulfide] | 0.56 | -1.54 | -1.54 | -2.10 | 0.31 | -0.30 | -1.85 | 0.59 | 0.16 | 0.16 | 0.16 | – | 1.24 | 0.31 | 2.61 | -1.85 | –
6 | c1c[nH]cn1 [Imidazole] | 2.90 | -9.6 | -9.60 | -6.70 | 1.75 | -9.00 | -10.25 | 0.81 | 0.29 | 0.29 | 0.29 | 1.30 | 0.60 | 0.65 | 3.71 | -7.85 | –
7 | C=CCC [But-1-ene] | 2.18 | 1.38 | 1.38 | -0.80 | 1.10 | 1.20 | 0.83 | 0.54 | 0.25 | 0.25 | 0.25 | 0.36 | 0.18 | 0.55 | 3.14 | 2.48 | –
